According to US11021721B2, “Genetically engineered Pseudomonas strains capable of metabolizing ethylene glycol and its metabolic intermediates” (Alliance for Sustainable Energy, LLC, priority 2017, dated 2021):
“And” between values parts separate entries of the source, which are not always exact repeats. Equal values may be shown once.

What was measured:
P. putida KT2440 [1] = experiment: C-limited chemostat cultivation on acetate with co-feed of ethylene glycol or glyoxylate; type: cell-based, Pseudomonas putida KT2440; settings: for increase of biomass yield on acetate: 30 mM co-feed with 30 mM acetate, compared to control with only acetate; for reducing equivalents generated through co-metabolism: co-feed with acetate, assuming all glyoxylate is metabolized through the glyoxylate shunt
Protocol: FIG. 14 depicts co-feeding of P. putida KT2440 in C-limited chemostat cultivations on mineral medium with 30 mM acetate supplemented with 30 mM ethylene glycol (black), 30 mM glyoxylate (green), or no co-feed (grey). FIG. 14A depicts a comparison of biomass (OD600) at steady state. FIG. 14B depicts extracellular metabolites at steady state. […] FIG. 14C depicts flux analysis of redox equivalent-yielding metabolism of ethylene glycol (upper value) or glyoxylate (lower value) in mM gCDW^−1 h^−1. Cells were grown at a dilution rate of 0.2. Error bars indicate the deviation from the mean (n=2).
To investigate the applicability of ethylene glycol as a co-substrate, P. putida KT2440 was cultured in carbon-limited chemostat cultivations with acetate as carbon source, and either ethylene glycol or glyoxylate as an energy source. Acetate was chosen because it induces the glyoxylate shunt enzymes.
Energy and redox equivalent homeostasis is essential for efficient growth of a bacterial cell.

P. putida KT2440 [2] = settings: on glucose, co-feed of formate, similar conditions; cited from earlier work
P. putida KT2440 [3] = experiment: Toxicity tests in Bioscreen C: growth in M9 minimal medium with 20 mM glucose and inhibitor; type: cell-based, Pseudomonas putida KT2440; settings: 20 mM glucose
Protocol: Toxicity tests and competitive inhibition assays were performed using Bioscreen C MBR analyzers (Growth Curves US, Piscataway, N.J.). For toxicity tests, overnight cultures of P. putida KT2440 were grown in M9 medium containing 20 mM glucose starting at an OD600 of 0.05-0.1 at 30° C. with shaking at 225 rpm in baffled shake flasks until the OD600 reached about 1.0-1.5. Cells were subsequently concentrated by centrifugation and inoculated into wells of Bioscreen C microplates at an initial OD600=0.05. Each well contained a total volume of 300 M9 medium, 20 mM glucose, and inhibitors at various concentrations. Incubations were performed at 30° C. with maximum shaking. Absorbance readings were taken every 15 min. […] Initial OD600 was set at 0.1 by using an overnight culture of wild type P. putida KT2440. Samples were incubated as described above. Operation of the Bioscreen C MBR and collection of turbidity measurements (OD420-580) were computer automated with EZ Experiment.
Growth curves were obtained from Bioscreen C analyzers (Growth Curves US, Piscataway, N.J.). Overnight cultures of P. putida KT2440 were grown in M9 medium containing 20 mM glucose starting at an OD600 of 0.05-0.1, 30° C., 225 rpm (baffled shake flask) until the OD600 reached ˜1.0-1.5. Cells were concentrated by centrifugation and inoculated into wells of Bioscreen C microplates containing various inhibitors and concentrations in the presence of 20 mM glucose at and additional OD600=0.05 in a total volume of 300 μL. Incubations were performed at 30° C. and absorbance readings were taken every 15 min. Operation of the Bioscreen C and collection of turbidity measurements (OD420-580) were computer automated with EZ Experiment. Data was collected and exported to Microsoft Excel spreadsheets for analysis.

P. putida KT2440 [4] = experiment: Competitive inhibition assay, glycolaldehyde and glyoxal full-factorial growth test (Bioscreen C); type: cell-based, Pseudomonas putida KT2440
Protocol: FIG. 13 depicts synergistic inhibitory effect of glycolaldehyde and glyoxal. Growth assays were conducted in 100 well plates in the Bioscreen C MBR analyzer. Individual wells of the plate were filled with 200 μL of M9 medium-containing 20 mM glucose and the respective concentration of glycolaldehyde and glyoxal according to a 3-level full-factorial design (Table 3), growth rates expressed as means±SEM (n=3). Bars labeled with different letters indicate statistical significance of different runs (p<0.05; one-way ANOVA followed by Tukey's post hoc honest significance difference test).
Toxicity tests and competitive inhibition assays were performed using Bioscreen C MBR analyzers (Growth Curves US, Piscataway, N.J.). For toxicity tests, overnight cultures of P. putida KT2440 were grown in M9 medium containing 20 mM glucose starting at an OD600 of 0.05-0.1 at 30° C. with shaking at 225 rpm in baffled shake flasks until the OD600 reached about 1.0-1.5. Cells were subsequently concentrated by centrifugation and inoculated into wells of Bioscreen C microplates at an initial OD600=0.05. Each well contained a total volume of […] M9 medium, 20 mM glucose, and inhibitors at various concentrations. Incubations were performed at 30° C. with maximum shaking. Absorbance readings were taken every 15 min. For competitive inhibition assays, individual wells of the plate were filled with 200 μL of M9 medium containing 20 mM glucose and a respective concentration of glycolaldehyde and glyoxal according to full-factorial test run results of which are presented in Table 3 and depicted in graphical form in FIG. 13. Initial OD600 was set at 0.1 by using an overnight culture of wild type P. putida KT2440. Samples were incubated as described above. Operation of the Bioscreen C MBR and collection of turbidity measurements (OD420-580) were computer automated with EZ Experiment.
The toxicity effects of ethylene glycol, glyoxylate, glycolaldehyde, glyoxal and oxalate on P. putida KT2440 were examined by monitoring growth in the Bioscreen C instrument (a microplate reader which monitors turbidity over time) in the presence of M9 minimal medium containing 20 mM glucose and the inhibitor, see FIG. 20. The average OD of at least 5 wells was plotted in FIG. 9. […] Glyoxal, an oxidation product of glycolaldehyde, is also very inhibitory to P. putida KT2440 growth at a 5 mM concentration where a long lag phase is observed. At 7.5 mM, glyoxal is lethal to the cells. Therefore, glycolaldehyde and glyoxal are intermediate metabolites which result in ethylene glycol toxicity on P. putida KT2440. Glycolaldehyde exerts combinational inhibitory effect with other compounds, such as 5-HMF, furfural, and methylglyoxal. The combinational inhibitory effect of glycolaldehyde and glyoxal was determined by running three level full-factorial growth experiments, see FIG. 13 and Table 3.

[5] = molecular target: tartronate semialdehyde reductase (GlxR); settings: cited from earlier work

## OCCO [Ethylene glycol, ethylene glycol]
P. putida KT2440 [1]
  increase of biomass yield on acetate: 29.6±1.1%
  reducing equivalents generated through co-metabolism: 27.3±2.6 mmol (g CDW)^−1 h^−1

## O=CO [formate]
P. putida KT2440 [2]
  reducing equivalents at maximal achievable biomass yield: 7.6±0.9 mmol (g CDW)^−1 h^−1

## O=C([O-])C(=O)[O-].[Na+].[Na+] [sodium oxalate]
P. putida KT2440 [3]
  concentration not significantly inhibitory to growth: up to 50 mM

## O=CC=O [Glyoxal, glyoxal]
P. putida KT2440 [3]
  concentration inhibitory to growth with long lag phase: 5000 µM
  lethal concentration: 7.5 mM
P. putida KT2440 [4]; in the presence of 2 mM glyoxal
  Growth Rate: 0.25 h⁻¹ and 0.297 ± 0.001 h⁻¹
P. putida KT2440 [4]; run 1: glycolaldehyde 0 mM, glyoxal 1.0 mM
  Growth Rate: 0.297 h⁻¹
P. putida KT2440 [4]; run 2: glycolaldehyde 0 mM, glyoxal 1.5 mM
  Growth Rate: 0.280 h⁻¹
P. putida KT2440 [4]; run 3: glycolaldehyde 0 mM, glyoxal 2.0 mM
  Growth Rate: 0.246 h⁻¹

## O=CC(=O)O [glyoxylate]
P. putida KT2440 [1]
  increase of biomass yield on acetate: 22.2±8.2%
  reducing equivalents generated through co-metabolism: 14.4±0.5 mmol (g CDW)^−1 h^−1

## O=C(O)CO [glycolate]
[5]; inhibition of GlxR
  Ki: 3000 µM

## O=CCO [Glycolaldehyde, glycolaldehyde]
P. putida KT2440 [3]
  concentration that completely inhibited growth: 4000 µM
  concentration that inhibits growth: 3000 µM
P. putida KT2440 [4]; in the presence of 2 mM glycolaldehyde
  Growth Rate: 0.22 h⁻¹ and 0.291 ± 0.001 h⁻¹
P. putida KT2440 [4]; run 13: glycolaldehyde 1.0 mM, glyoxal 0 mM
  Growth Rate: 0.281 h⁻¹
P. putida KT2440 [4]; run 14: glycolaldehyde 1.5 mM, glyoxal 0 mM
  Growth Rate: 0.221 h⁻¹
P. putida KT2440 [4]; run 15: glycolaldehyde 2 mM, glyoxal 0 mM
  Growth Rate: 0.218 h⁻¹

## O=C(O)C(=O)CO [hydroxypyruvate]
[5]
  maximal velocity as GlxR substrate, fold lower than tartronate semialdehyde: 10 fold
